Patent publication US20220089636A1, “TETRAZOLONE SUBSTITUTED STEROIDS AND USE THEREOF” (Beijing Xuanyi PharmaSciences Co., Ltd., priority 2019, published 2022)
Read-outs that look alike come from different tables or passages of the source.

What was measured:
α1β2γ2 GABAA receptor = target: T1, α1β2γ2 GABAA receptor (Homo sapiens, UniProt P14867+P47870); test: Patch clamp electrophysiology assay of recombinant α1β2γ2 GABAA receptors (potentiation of 2 μM GABA-evoked Cl- current); assay type: cell-based; conditions: HEK293T cells stably transfected with α1β2γ2 GABAA; for EC50: whole cell, 2 μM GABA, -80 mV
T1 construct: expressed in transfected cells
T1 sequence (P14867 28-456): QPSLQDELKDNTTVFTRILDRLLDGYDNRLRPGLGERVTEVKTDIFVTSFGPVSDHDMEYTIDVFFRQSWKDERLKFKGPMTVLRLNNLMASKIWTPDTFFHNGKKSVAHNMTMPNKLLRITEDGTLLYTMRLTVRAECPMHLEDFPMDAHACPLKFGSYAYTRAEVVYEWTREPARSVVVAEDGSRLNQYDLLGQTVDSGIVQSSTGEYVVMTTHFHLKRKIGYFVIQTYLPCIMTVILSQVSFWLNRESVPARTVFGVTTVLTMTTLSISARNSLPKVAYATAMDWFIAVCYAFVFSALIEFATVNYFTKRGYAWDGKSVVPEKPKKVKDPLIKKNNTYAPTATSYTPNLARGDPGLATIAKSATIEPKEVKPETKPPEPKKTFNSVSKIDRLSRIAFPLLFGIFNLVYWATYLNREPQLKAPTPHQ
T1 sequence (P47870 25-512 limits assumed): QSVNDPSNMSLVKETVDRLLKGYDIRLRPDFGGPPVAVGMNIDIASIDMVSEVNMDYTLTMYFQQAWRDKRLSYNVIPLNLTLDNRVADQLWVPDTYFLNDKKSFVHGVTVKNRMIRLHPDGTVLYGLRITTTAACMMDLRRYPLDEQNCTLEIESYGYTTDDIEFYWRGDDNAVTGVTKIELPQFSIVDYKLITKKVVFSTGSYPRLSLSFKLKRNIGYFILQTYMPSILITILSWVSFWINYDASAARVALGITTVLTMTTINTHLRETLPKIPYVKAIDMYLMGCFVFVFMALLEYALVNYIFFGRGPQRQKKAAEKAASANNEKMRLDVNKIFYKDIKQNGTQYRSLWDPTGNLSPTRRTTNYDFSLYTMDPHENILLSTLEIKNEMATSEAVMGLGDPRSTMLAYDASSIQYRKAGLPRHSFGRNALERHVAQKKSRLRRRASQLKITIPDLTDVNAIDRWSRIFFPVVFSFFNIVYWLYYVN
T1 sequence (P18507 40-475 partner): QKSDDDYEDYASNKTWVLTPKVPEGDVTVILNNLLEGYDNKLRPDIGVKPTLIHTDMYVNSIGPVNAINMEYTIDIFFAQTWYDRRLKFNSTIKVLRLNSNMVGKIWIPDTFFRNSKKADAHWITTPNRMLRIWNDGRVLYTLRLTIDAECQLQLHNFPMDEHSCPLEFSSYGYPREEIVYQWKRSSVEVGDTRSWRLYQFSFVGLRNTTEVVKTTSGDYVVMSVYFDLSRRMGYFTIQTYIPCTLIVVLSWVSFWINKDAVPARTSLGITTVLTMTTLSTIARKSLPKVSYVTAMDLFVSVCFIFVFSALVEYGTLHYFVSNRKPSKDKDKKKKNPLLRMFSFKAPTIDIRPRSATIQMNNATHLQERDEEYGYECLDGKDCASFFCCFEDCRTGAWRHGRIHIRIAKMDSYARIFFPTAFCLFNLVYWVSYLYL
Description: Cellular electrophysiology is used to measure the pharmacological properties of GABAA receptor modulators in heterologous cell systems. Each compound is tested for its ability to affect GABA mediated currents at a submaximal agonist dose (GABA EC20=2 μM). HEK293T cells are stably transfected with the α1β2γ2 subunits of the GABAA receptor. Flasks or dishes of HEK293 GABAA cells were maintained in the medium (DMEM, 11% (v/v) heat inactivated FBS, 100 or 200 μg/ml G418, 40 μg/ml Hygromycin B, 80 μg/ml Zeocin) and incubated at 37° C. in a humidified incubator with 5% CO2. 12 to 24 hours prior to electrophysiological recordings, the cells were plated on glass cover slips placed in culture dishes and maintained under the same incubation and media conditions. The number of cells being plated on the cover slip should reach a confluence rate at which majority of the cells are single.
For the electrophysiological recordings in the study the following external and internal solutions were used (Table 1):
HEKA EPC 10 USB patch clamp amplifier (from HEKA Elektronik, Germany) was used in the whole cell recording. A cover slip with plenty of single HEK293T-GABAA cells on the surface was removed and placed into a continuously perfused (approximately 1-2 ml/minute) recording chamber mounted on an inverted microscope. GABAA Cl^− current was recorded from single cell using standard whole cell recording techniques. 2 μM GABA was used to evoke GABAA Cl^− current (2 μM of GABA was the EC10-EC20 value of agonist GABA obtained internally on the stable GABAA cells used in this study). After achieving break-in (whole-cell) configuration, the cell was voltage clamped at a holding potential of −80 mV. Only stable cells meeting the recording parameters (membrane resistance Rm>500 MΩ, access resistance (Ra)<15 MΩ, leak current<100 pA in 90% of the recording time) were used. 2 μM GABA was applied to the cell to induce stable Cl^− current first as control for about 2 seconds, test compounds (i.e., compounds of formula (AI), (I), (AII), and (II), or any subgenera thereof) were followed to be applied to the cells for 3 min, then 2 μM GABA was applied to observe the potentiation effect on the GABAA Cl^− current. Different doses of test compound from low to high were applied to the same cell when the cell was stable. A cell was considered stable when current size evoked by 2 μM GABA applied to the cell from time to time was similar. To minimize the possible desensitation of GABAA Cl^− current, duration between applications of test articles was set to 180 seconds.
Test compounds were dissolved in DMSO to form stock solutions (10 mM). Test compounds were diluted to 0.003, 0.01, 0.03, 0.1, 0.3, 1, 3 and 10 μM in bath solution. AU concentrations of test articles were tested on each cell. Data were analyzed using software provided by HEKA, Microsoft Excel and Graphpad Prism (Table 2).

[1] = Mouse PK study (i.v. and p.o.); assay type: in vivo; conditions: plasma, male CD1 mice; for half-life: read-out: T1/2 (hr) i.v. (converted); for Vd: read-out: Vss; for bioavailability: 5 mg/kg p.o. vs 1 mg/kg i.v.
Description: Test compounds were dosed to male CD1 mice at 5 mg/kg by oral gavage (p.o.) or 1 mg/kg by intravenous injection (i.v.). Blood samples were taken at 0.083, 0.25, 0.5, 1.0, 3.0, 6.0 and 24 hours post i.v. dosing and at 0.25, 0.5, 1.0, 3.0, 6.0 and 24 hours post p.o. dosing. The plasma concentration of compounds were determined by HPLC.

[2] = iv, 1 mg/kg i.v., read-out: AUClast (hr*ng/mL) i.v.
[3] = po, 5 mg/kg p.o., read-out: AUClast (hr*ng/mL) p.o.

Question: What does the source list for C[C@@]1(O)CC[C@H]2[C@H](CC[C@@H]3[C@@H]2CC[C@]2(C)[C@@H](C(=O)Cn4nnn(-c5cccnc5)c4=O)CC[C@@H]32)C1 [Example 18, 1-(2-((3R,5R,8R,9R,10S,13S,14S,17S)-3-hydroxy-3,13-dimethylhexadecahydro-1H-cyclopenta[a]phenanthren-17-yl)-2-oxoethyl)-4-(pyridin-3-yl)-1,4-dihydro-5H-tetrazol-5-one]?
Answer: EC50 (α1β2γ2 GABAA receptor): 0.039 µM; Emax (α1β2γ2 GABAA receptor; HEK-293T, potentiation of 2 μM GABA current): 757%; clearance ([1]; iv, 1 mg/kg i.v.): 56.5 mL/min/kg; AUC(0-t) [1, 2]: 270 ng·h/mL; half-life ([1]; iv, 1 mg/kg i.v.): 0.29 h; Vd ([1]; iv, 1 mg/kg i.v.): 1.33 L/kg; Cmax ([1]; po, 5 mg/kg p.o.): 297 ng/mL; Tmax ([1]; po, 5 mg/kg p.o.): 60 min; bioavailability ([1]; po): 50.1%; AUC(0-t) [1, 3]: 692 ng·h/mL

Question: With C[C@@]1(O)CC[C@H]2[C@H](CC[C@@H]3[C@@H]2CC[C@]2(C)[C@@H](C(=O)Cn4nnn(CC5CC5)c4=O)CC[C@@H]32)C1 [Example 7, 1-(cyclopropylmethyl)-4-(2-((3R,5R,8R,9R,10S,13S,14S,17S)-3-hydroxy-3,13-dimethylhexadecahydro-1H-cyclopenta[a]phenanthren-17-yl)-2-oxoethyl)-1,4-dihydro-5H-tetrazol-5-one] as the molecule, how does the EC50 (α1β2γ2 GABAA receptor) read?
Answer: 0.099 µM

Question: And the clearance ([1]; iv, 1 mg/kg i.v.)?
Answer: 68.7 mL/min/kg

Question: What about the AUC(0-t) [1, 2] of the same molecule?
Answer: 239 ng·h/mL

Question: What about the half-life ([1]; iv, 1 mg/kg i.v.) of the same molecule?
Answer: 0.6 h

Question: And the Vd ([1]; iv, 1 mg/kg i.v.)?
Answer: 1.69 L/kg

Question: What about the Cmax ([1]; po, 5 mg/kg p.o.) of the same molecule?
Answer: 186 ng/mL

Question: And the Tmax ([1]; po, 5 mg/kg p.o.)?
Answer: 30 min

Question: And the bioavailability ([1]; po)?
Answer: 27.6%

Question: And the AUC(0-t) [1, 3]?
Answer: 326 ng·h/mL

Question: With C[C@@]1(O)CC[C@H]2[C@H](CC[C@@H]3[C@@H]2CC[C@]2(C)[C@@H](C(=O)Cn4nnn(CCC#N)c4=O)CC[C@@H]32)C1 [Example 21, 3-(4-(2-((3R,5R,8R,9R,10S,13S,14S,17S)-3-hydroxy-3,13-dimethylhexadecahydro-1H-cyclopenta[a]phenanthren-17-yl)-2-oxoethyl)-5-oxo-4,5-dihydro-1H-tetrazol-1-yl)propanenitrile] as the molecule, how does the EC50 (α1β2γ2 GABAA receptor) read?
Answer: 0.29 µM

Question: What does the source list for C[C@@]1(O)CC[C@H]2[C@H](CC[C@@H]3[C@@H]2CC[C@]2(C)[C@@H](C(=O)Cn4nnn(-c5ccn[nH]5)c4=O)CC[C@@H]32)C1 [Example 25, 1-(2-((3R,5R,8R,9R,10S,13S,14S,17S)-3-hydroxy-3,13-dimethylhexadecahydro-1H-cyclopenta[a]phenanthren-17-yl)-2-oxoethyl)-4-(1H-pyrazol-5-yl)-1,4-dihydro-5H-tetrazol-5-one]?
Answer: EC50 (α1β2γ2 GABAA receptor): 0.13 µM; clearance ([1]; iv, 1 mg/kg i.v.): 6.5 mL/min/kg; AUC(0-t) [1, 2]: 2480 ng·h/mL; half-life ([1]; iv, 1 mg/kg i.v.): 4.63 h; Vd ([1]; iv, 1 mg/kg i.v.): 1.88 L/kg; Cmax ([1]; po, 5 mg/kg p.o.): 1190 ng/mL; Tmax ([1]; po, 5 mg/kg p.o.): 180 min; bioavailability ([1]; po): 106%; AUC(0-t) [1, 3]: 12800 ng·h/mL

Question: Which results are given for Cn1ccc(-n2nnn(CC(=O)[C@H]3CC[C@H]4[C@@H]5CC[C@@H]6C[C@](C)(O)CC[C@@H]6[C@H]5CC[C@]34C)c2=O)n1 [Example 27, 1-(2-((3R,5R,8R,9R,10S,13S,14S,17S)-3-hydroxy-3,13-dimethylhexadecahydro-1H-cyclopenta[a]phenanthren-17-yl)-2-oxoethyl)-4-(1-methyl-1H-pyrazol-3-yl)-1,4-dihydro-5H-tetrazol-5-one]?
Answer: EC50 (α1β2γ2 GABAA receptor): 0.12 µM; clearance ([1]; iv, 1 mg/kg i.v.): 14.5 mL/min/kg; AUC(0-t) [1, 2]: 1110 ng·h/mL; half-life ([1]; iv, 1 mg/kg i.v.): 1.09 h; Vd ([1]; iv, 1 mg/kg i.v.): 1.14 L/kg; Cmax ([1]; po, 5 mg/kg p.o.): 1070 ng/mL; Tmax ([1]; po, 5 mg/kg p.o.): 60 min; bioavailability ([1]; po): 153%; AUC(0-t) [1, 3]: 8770 ng·h/mL

Question: Which EC50 (α1β2γ2 GABAA receptor) does the source give for CCn1nnn(CC(=O)[C@H]2CC[C@H]3[C@@H]4CC[C@@H]5C[C@](C)(O)CC[C@@H]5[C@H]4CC[C@]23C)c1=O [Example 3, 1-ethyl-4-(2-((3R,5R,8R,9R,10S,13S,14S,17S)-3-hydroxy-3,13-dimethylhexadecahydro-1H-cyclopenta[a]phenanthren-17-yl)-2-oxoethyl)-1,4-dihydro-5H-tetrazol-5-one] here?
Answer: 0.094 µM

Question: What about the clearance ([1]; iv, 1 mg/kg i.v.) of the same molecule?
Answer: 24.3 mL/min/kg

Question: And the AUC(0-t) [1, 2]?
Answer: 673 ng·h/mL

Question: And the half-life ([1]; iv, 1 mg/kg i.v.)?
Answer: 0.57 h

Question: And the Vd ([1]; iv, 1 mg/kg i.v.)?
Answer: 0.93 L/kg

Question: And the Cmax ([1]; po, 5 mg/kg p.o.)?
Answer: 973 ng/mL

Question: What about the Tmax ([1]; po, 5 mg/kg p.o.) of the same molecule?
Answer: 30 min

Question: And the bioavailability ([1]; po)?
Answer: 40.5%

Question: And the AUC(0-t) [1, 3]?
Answer: 1330 ng·h/mL

Question: For CC(C)n1nnn(CC(=O)[C@H]2CC[C@H]3[C@@H]4CC[C@@H]5C[C@](C)(O)CC[C@@H]5[C@H]4CC[C@]23C)c1=O [Example 4, 1-(2-((3R,5R,8R,9R,10S,13S,14S,17S)-3-hydroxy-3,13-dimethylhexadecahydro-1H-cyclopenta[a]phenanthren-17-yl)-2-oxoethyl)-4-isopropyl-1,4-dihydro-5H-tetrazol-5-one], which EC50 (α1β2γ2 GABAA receptor) is on record?
Answer: 0.14 µM

Question: What about the clearance ([1]; iv, 1 mg/kg i.v.) of the same molecule?
Answer: 24.8 mL/min/kg

Question: And the AUC(0-t) [1, 2]?
Answer: 659 ng·h/mL

Question: What about the half-life ([1]; iv, 1 mg/kg i.v.) of the same molecule?
Answer: 0.54 h

Question: What about the Vd ([1]; iv, 1 mg/kg i.v.) of the same molecule?
Answer: 0.88 L/kg

Question: And the Cmax ([1]; po, 5 mg/kg p.o.)?
Answer: 808 ng/mL

Question: What about the Tmax ([1]; po, 5 mg/kg p.o.) of the same molecule?
Answer: 15 min

Question: What about the bioavailability ([1]; po) of the same molecule?
Answer: 25.8%

Question: What about the AUC(0-t) [1, 3] of the same molecule?
Answer: 782 ng·h/mL

Question: With Cn1cc(-n2nnn(CC(=O)[C@H]3CC[C@H]4[C@@H]5CC[C@@H]6C[C@](C)(O)CC[C@@H]6[C@H]5CC[C@]34C)c2=O)cn1 [Example 29, 1-(2-((3R,5R,8R,9R,10S,13S,14S,17S)-3-hydroxy-3,13-dimethylhexadecahydro-1H-cyclopenta[a]phenanthren-17-yl)-2-oxoethyl)-4-(1-methyl-1H-pyrazol-4-yl)-1,4-dihydro-5H-tetrazol-5-one] as the molecule, how does the EC50 (α1β2γ2 GABAA receptor) read?
Answer: 0.28 µM

Question: With C[C@@]1(O)CC[C@H]2[C@H](CC[C@@H]3[C@@H]2CC[C@]2(C)[C@@H](C(=O)Cn4nn[nH]c4=O)CC[C@@H]32)C1 [Example 19, 1-(2-((3R,5R,8R,9R,10S,13S,14S,17S)-3-hydroxy-3,13-dimethylhexadecahydro-1H-cyclopenta[a]phenanthren-17-yl)-2-oxoethyl)-1,4-dihydro-5H-tetrazol-5-one] as the molecule, how does the EC50 (α1β2γ2 GABAA receptor) read?
Answer: 24 µM

Question: With C[C@@]1(O)CC[C@H]2[C@H](CC[C@@H]3[C@@H]2CC[C@]2(C)[C@@H](C(=O)Cn4nnn(CC#N)c4=O)CC[C@@H]32)C1 [Example 20, 2-(4-(2-((3R,5R,8R,9R,10S,13S,14S,17S)-3-hydroxy-3,13-dimethylhexadecahydro-1H-cyclopenta[a]phenanthren-17-yl)-2-oxoethyl)-5-oxo-4,5-dihydro-1H-tetrazol-1-yl)acetonitrile] as the molecule, how does the EC50 (α1β2γ2 GABAA receptor) read?
Answer: 0.56 µM

Question: With C[C@@]1(O)CC[C@H]2[C@H](CC[C@@H]3[C@@H]2CC[C@]2(C)[C@@H](C(=O)Cn4nnn(C5CC5)c4=O)CC[C@@H]32)C1 [Example 6, 1-cyclopropyl-4-(2-((3R,5R,8R,9R,10S,13S,14S,17S)-3-hydroxy-3,13-dimethylhexadecahydro-1H-cyclopenta[a]phenanthren-17-yl)-2-oxoethyl)-1,4-dihydro-5H-tetrazol-5-one] as the molecule, how does the EC50 (α1β2γ2 GABAA receptor) read?
Answer: 0.66 µM

Question: Which EC50 (α1β2γ2 GABAA receptor) does the source give for C[C@@]1(O)CC[C@H]2[C@H](CC[C@@H]3[C@@H]2CC[C@]2(C)[C@@H](C(=O)Cn4nnn(C5CCCCC5)c4=O)CC[C@@H]32)C1 [Example 9, 1-cyclohexyl-4-(2-((3R,5R,8R,9R,10S,13S,14S,17S)-3-hydroxy-3,13-dimethylhexadecahydro-1H-cyclopenta[a]phenanthren-17-yl)-2-oxoethyl)-1,4-dihydro-5H-tetrazol-5-one] here?
Answer: 1.38 µM

Question: Which EC50 (α1β2γ2 GABAA receptor) does the source give for C[C@@]1(O)CC[C@H]2[C@H](CC[C@@H]3[C@@H]2CC[C@]2(C)[C@@H](C(=O)Cn4nnn(-c5cnco5)c4=O)CC[C@@H]32)C1 [Example 23, 1-(2-((3R,5R,8R,9R,10S,13S,14S,17S)-3-hydroxy-3,13-dimethylhexadecahydro-1H-cyclopenta[a]phenanthren-17-yl)-2-oxoethyl)-4-(oxazol-5-yl)-1,4-dihydro-5H-tetrazol-5-one] here?
Answer: 0.096 µM
